Publication PMC11532494 (Nature Communications, 2024)
Where “and” joins values, the source holds several entries; their conditions need not be identical. Equal entries are not always repeated. Where two headings read alike, the source gives them in different places. No end group written: not given here. *: point of attachment. AMC = Cc1cc(=O)oc2cc(N*)ccc12

Tests used:
VsHdaH (1b) = format: biochemical, Vibrio sp.; conditions: VKDAC
KpHdaH (1b) = KpHdaH (1b) (Klebsiella pneumoniae, UniProt A0A377Z5F6); format: biochemical; conditions: KpHdaH (1b)
BsAcuC (2c) = target: T1, BsAcuC (2c) (Bacillus subtilis, UniProt P39067); experiment: Substrate screening assay (acyl-peptide-AMC); format: biochemical; conditions: BsAcuC (2c); for [AMC]: Transform RFU in [AMC]
T1 construct: made in house; host or cells: E. coli BL21 (DE3)
T1 sequence (P39067 1-387): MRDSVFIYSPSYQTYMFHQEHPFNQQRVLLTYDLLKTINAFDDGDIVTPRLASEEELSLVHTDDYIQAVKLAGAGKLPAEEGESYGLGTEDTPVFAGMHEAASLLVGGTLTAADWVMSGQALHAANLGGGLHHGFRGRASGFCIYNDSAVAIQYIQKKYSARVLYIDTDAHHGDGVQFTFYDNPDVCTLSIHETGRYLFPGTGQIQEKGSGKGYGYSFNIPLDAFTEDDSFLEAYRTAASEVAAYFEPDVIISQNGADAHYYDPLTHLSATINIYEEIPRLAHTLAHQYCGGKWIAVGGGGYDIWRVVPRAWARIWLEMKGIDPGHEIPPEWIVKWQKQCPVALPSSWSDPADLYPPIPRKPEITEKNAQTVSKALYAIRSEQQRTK
Method: (§1) Experiments with SIRT2 and SIRT5 were supplemented with NAD^+ (500 µM). Thereafter, a solution of trypsin (25 µL, 5.0 mg/mL; final concentration of 2.5 mg/mL) was added, and the development of the assay was allowed to proceed for 90 min at room temperature before fluorescence analysis. […] To this end, a single category is given to all conversions >48% on the heatmap. […] For the H4-derived peptide LGKbio no positive control was available.

VcHdaH (5b) = format: biochemical, Vibrio cholerae; conditions: VcHdaH (5b); for [AMC]: Transform RFU in [AMC]
PsApaH (4) [1] = target: T2, PsApaH (4) (Pseudomonas sp. M30-35, UniProt A0A1Y0KY79); format: biochemical; conditions: PsApaH (4)
Method: as §1

Controls = experiment: Substrate screening assay (acyl-peptide-AMC), control enzymes; format: biochemical
PsApaH (4) [2] = target: T2, PsApaH (4); experiment: Acetyl-polyamine deacetylase assay; format: biochemical; conditions: for [acetate] (individual samples): acetate released from acetyl-polyamine substrate, Sample 1-3; for [acetate] mean: mean of samples
Target sequence in this assay (A0A1Y0KY79 1-342 limits assumed): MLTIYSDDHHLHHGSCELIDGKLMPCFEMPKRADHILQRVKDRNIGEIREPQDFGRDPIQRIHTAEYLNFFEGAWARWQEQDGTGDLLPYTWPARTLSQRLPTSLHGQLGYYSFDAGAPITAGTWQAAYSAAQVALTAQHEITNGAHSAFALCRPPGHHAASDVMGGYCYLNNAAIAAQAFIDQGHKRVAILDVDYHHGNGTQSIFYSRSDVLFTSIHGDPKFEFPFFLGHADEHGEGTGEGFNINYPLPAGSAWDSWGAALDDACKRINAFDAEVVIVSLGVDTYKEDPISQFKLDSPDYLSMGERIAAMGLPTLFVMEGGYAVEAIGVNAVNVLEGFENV

PA1409 = PA1409 (Pseudomonas aeruginosa, UniProt Q9I3T5); experiment: Acetyl-polyamine deacetylase assay (positive control); format: biochemical; conditions: for [acetate] (individual samples): PA1409, acetate released from acetyl-polyamine substrate, Sample 1-2; for [acetate] mean: mean of samples
PA1409, sequence (Q9I3T5 whole entry): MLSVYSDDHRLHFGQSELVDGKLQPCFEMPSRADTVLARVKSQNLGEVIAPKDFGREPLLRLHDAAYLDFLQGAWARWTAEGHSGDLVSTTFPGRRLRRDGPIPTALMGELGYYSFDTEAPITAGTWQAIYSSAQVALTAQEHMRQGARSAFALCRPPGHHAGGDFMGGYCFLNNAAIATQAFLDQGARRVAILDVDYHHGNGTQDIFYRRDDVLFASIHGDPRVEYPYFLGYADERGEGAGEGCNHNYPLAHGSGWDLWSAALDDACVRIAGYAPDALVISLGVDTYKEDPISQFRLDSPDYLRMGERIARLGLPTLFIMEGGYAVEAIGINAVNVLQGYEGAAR

QPKKhex (QPKK-{AMC}; not fully specified (residue 4); printed as QPKKhex; also: hexanoyl-lysine (which Lys not given here); UniProt P04637 317-320, looked up, fragment)
Relative Fluorescene Units (RFU) (VsHdaH (1b); Transform RFU*2, Sample 1): 72 RFU | Relative Fluorescene Units (RFU) (VsHdaH (1b); Transform RFU*2, Sample 2): 194 RFU | Relative Fluorescene Units (RFU) (VsHdaH (1b); Sample 1): 36 RFU | Relative Fluorescene Units (RFU) (VsHdaH (1b); Sample 2): 97 RFU | Relative Fluorescene Units (RFU) (KpHdaH (1b); Sample 1): 170 RFU | Relative Fluorescene Units (RFU) (KpHdaH (1b); Sample 2): 14 RFU | Relative Fluorescene Units (RFU) (KpHdaH (1b); Transform RFU*2, Sample 1): 340 RFU | Relative Fluorescene Units (RFU) (KpHdaH (1b); Transform RFU*2, Sample 2): 28 RFU | Relative Fluorescene Units (RFU) (BsAcuC (2c); Sample 1): 1720 RFU | Relative Fluorescene Units (RFU) (BsAcuC (2c); Sample 2): 1255 RFU | [AMC] (BsAcuC (2c); Sample 1): 1679.69 nM | [AMC] (BsAcuC (2c); Sample 2): 1225.59 nM | Relative Fluorescene Units (RFU) (BsAcuC (2c); Transform RFU*2, Sample 1): 3440 RFU | Relative Fluorescene Units (RFU) (BsAcuC (2c); Transform RFU*2, Sample 2): 2510 RFU | [AMC] (VcHdaH (5b); Sample 1): -22.46 nM | [AMC] (VcHdaH (5b); Sample 2): 121.09 nM | Relative Fluorescene Units (RFU) (VcHdaH (5b); Transform RFU*2, Sample 1): -46 RFU | Relative Fluorescene Units (RFU) (VcHdaH (5b); Transform RFU*2, Sample 2): 248 RFU | Relative Fluorescene Units (RFU) (VcHdaH (5b); Sample 1): -23 RFU | Relative Fluorescene Units (RFU) (VcHdaH (5b); Sample 2): 124 RFU | Relative Fluorescene Units (RFU) (PsApaH (4) [1]; Sample 1): 128 RFU | Relative Fluorescene Units (RFU) (PsApaH (4) [1]; Sample 2): 61 RFU | Relative Fluorescene Units (RFU) (PsApaH (4) [1]; Transform RFU*2, Sample 1): 256 RFU | Relative Fluorescene Units (RFU) (PsApaH (4) [1]; Transform RFU*2, Sample 2): 122 RFU | [AMC] (Controls): 3.01563 µM and 4.0166 µM

CC(=O)NCCCNCCCCN [N1-acetylspermidine]
[acetate] (individual samples) (PsApaH (4) [2]; time 5 min): 0.06608 mM and 0.08811 mM | [acetate] (individual samples) (PsApaH (4) [2]; time 10 min): 0.06608 mM and 0.1322 mM | [acetate] (individual samples) (PsApaH (4) [2]; time 20 min): 0.3304 mM and 0.3084 mM | [acetate] (individual samples) (PsApaH (4) [2]; time 45 min): 0.2643 mM and 0.3965 mM | [acetate] mean (PsApaH (4) [2]; time 5 min): 0.07709 mM | [acetate] mean (PsApaH (4) [2]; time 10 min): 0.09912 mM | [acetate] mean (PsApaH (4) [2]; time 20 min): 0.3194 mM | [acetate] mean (PsApaH (4) [2]; time 45 min): 0.3304 mM | [acetate] (individual samples) (PA1409; time 5 min): 1.542 mM and 1.762 mM | [acetate] (individual samples) (PA1409; time 10 min): 8.1499 mM and 9.163 mM | [acetate] (individual samples) (PA1409; time 20 min): 14.4496 mM and 14.5817 mM | [acetate] (individual samples) (PA1409; time 45 min): 15.6831 mM and 14.9782 mM | [acetate] mean (PA1409; PA1409, time 5 min): 1.652 mM | [acetate] mean (PA1409; PA1409, time 10 min): 8.657 mM | [acetate] mean (PA1409; PA1409, time 20 min): 14.5156 mM | [acetate] mean (PA1409; PA1409, time 45 min): 15.3306 mM

CC(=O)NCCCCCN [N1-acetylcadaverine]
[acetate] (individual samples) (PsApaH (4) [2]; time 5 min): 2.228 mM and 2.337 mM and 2.011 mM | [acetate] (individual samples) (PsApaH (4) [2]; time 10 min): 5.272 mM and 5.38 mM and 5.337 mM | [acetate] (individual samples) (PsApaH (4) [2]; time 20 min): 7.446 mM and 7.663 mM and 8.054 mM | [acetate] (individual samples) (PsApaH (4) [2]; time 45 min): 9.337 mM and 10.2283 mM and 9.967 mM | [acetate] mean (PsApaH (4) [2]; time 5 min): 2.192 mM | [acetate] mean (PsApaH (4) [2]; time 10 min): 5.33 mM | [acetate] mean (PsApaH (4) [2]; time 20 min): 7.721 mM | [acetate] mean (PsApaH (4) [2]; time 45 min): 9.844 mM | [acetate] (individual samples) (PA1409; time 5 min): 3.7616 mM and 3.63 mM | [acetate] (individual samples) (PA1409; time 10 min): 14.5405 mM and 14.4965 mM | [acetate] (individual samples) (PA1409; time 20 min): 22.4156 mM and 22.0637 mM | [acetate] (individual samples) (PA1409; time 45 min): 23.2955 mM and 23.4715 mM | [acetate] mean (PA1409; PA1409, time 5 min): 3.696 mM | [acetate] mean (PA1409; PA1409, time 10 min): 14.5185 mM | [acetate] mean (PA1409; PA1409, time 20 min): 22.2396 mM | [acetate] mean (PA1409; PA1409, time 45 min): 23.3835 mM

CC(=O)NCCCNCCCCNCCCN [N1/N12-acetylspermine]
[acetate] (individual samples) (PsApaH (4) [2]; time 5 min): 2.337 mM and 2.446 mM and 2.554 mM | [acetate] (individual samples) (PsApaH (4) [2]; time 10 min): 4.0761 mM and 4.1848 mM and 4.12 mM | [acetate] (individual samples) (PsApaH (4) [2]; time 20 min): 7.467 mM and 7.707 mM and 7.62 mM | [acetate] (individual samples) (PsApaH (4) [2]; time 45 min): 11.6196 mM and 12.1848 mM and 11.8587 mM | [acetate] mean (PsApaH (4) [2]; time 5 min): 2.446 mM | [acetate] mean (PsApaH (4) [2]; time 10 min): 4.127 mM | [acetate] mean (PsApaH (4) [2]; time 20 min): 7.598 mM | [acetate] mean (PsApaH (4) [2]; time 45 min): 11.8877 mM | [acetate] (individual samples) (PA1409; time 5 min): 3.921 mM and 3.216 mM | [acetate] (individual samples) (PA1409; time 10 min): 19.1192 mM and 18.2382 mM | [acetate] (individual samples) (PA1409; time 20 min): 34.0974 mM and 33.8331 mM | [acetate] (individual samples) (PA1409; time 45 min): 42.3354 mM and 46.7408 mM | [acetate] mean (PA1409; PA1409, time 5 min): 3.568 mM | [acetate] mean (PA1409; PA1409, time 10 min): 18.6787 mM | [acetate] mean (PA1409; PA1409, time 20 min): 33.9653 mM | [acetate] mean (PA1409; PA1409, time 45 min): 44.5381 mM
